Structures are written as SMILES. “And” between values parts separate entries of the source, which are not always exact repeats. Equal entries are not always repeated.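 Grown in 96-well plates, cells were treated for 48 hours with each compound at five concentrations. Insufficient inhibition: endpoint recorded as highest concentration tested. Here, GI50 denotes the concentration required for 50% inhibition of growth. The concentration for full growth arrest is given as TGI.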

Here are results for 11 molecules from PubChem BioAssay (NCI).

Test systems include A498 renal; CCRF-CEM leukemia; HCT-116 colon; HS 578T breast; K-562 leukemia; LOX IMVI melanoma; MCF7 breast; NCI/ADR-RES ovarian; OVCAR-8 ovarian; UO-31 renal.
What all share (test): DTP human tumour cell line panel, 48 h

In the case of `C=C(Cl)COC(=O)Nc1cccc(Cl)c1`, the TGI is 90.4 µM in the test with A498 renal; > 100 µM in the test on CCRF-CEM leukemia; 78.7 µM in the test with HCT-116 colon; > 100 µM in the test on HS 578T breast; > 100 µM in the test on K-562 leukemia; > 100 µM in the test with LOX IMVI melanoma. The TGI was > 100 µM in the test on MCF7 breast, 99.7 µM in the test with NCI/ADR-RES ovarian, > 100 µM in the test on OVCAR-8 ovarian and 44.9 µM with UO-31 renal.

On to `CCOC(=O)CCCn1c(SC)nc2cc(-c3ccco3)[nH]c2c1=O`, for which the GI50 is 27.4 µM with A498 renal; > 100 µM in the test on CCRF-CEM leukemia; 49.8 µM with HCT-116 colon; 25.6 µM in the test with HS 578T breast; > 100 µM in the test with K-562 leukemia; 57.8 µM in the test with LOX IMVI melanoma. In addition, the GI50 in the test with MCF7 breast was > 100 µM; with NCI/ADR-RES ovarian, 72.9 µM; in the test on OVCAR-8 ovarian it was 31.1 µM; in the test with UO-31 renal, 72.6 µM. Further, the concentration for total growth inhibition (TGI) was 76 µM with A498 renal; > 100 µM with CCRF-CEM leukemia; > 100 µM in the test on HCT-116 colon; > 100 µM with HS 578T breast; > 100 µM in the test with K-562 leukemia; > 100 µM with LOX IMVI melanoma. Also, the TGI with MCF7 breast, with NCI/ADR-RES ovarian, in the test on OVCAR-8 ovarian and in the test on UO-31 renal was > 100 µM each time.

Take `COc1ccc(C2=NN(C(=O)COc3ccc(Cl)cc3)C(O)(c3cc(F)c(Cl)cc3Cl)C2)cc1OC` (stereo unspecified): the GI50 in the test on A498 renal was 13.1 µM; in the test with CCRF-CEM leukemia it was 0.218 µM; with HCT-116 colon it was 1.23 µM; with HS 578T breast, 4.5 µM; in the test with K-562 leukemia, 1.55 µM; in the test with LOX IMVI melanoma, 1.4 µM. The GI50 was 2.18 µM in the test on MCF7 breast, 2.94 µM with NCI/ADR-RES ovarian, 5.7 µM with OVCAR-8 ovarian and 2.08 µM in the test on UO-31 renal. Besides, the TGI in the test with A498 renal came out at 26.2 µM; with CCRF-CEM leukemia it was 1.8 µM; in the test with HCT-116 colon, 2.58 µM; with HS 578T breast, 13.4 µM; in the test with K-562 leukemia, 15.2 µM; with LOX IMVI melanoma it was 2.78 µM. For the same molecule, the TGI in the test with MCF7 breast was 8.21 µM; in the test on NCI/ADR-RES ovarian, 8.73 µM; in the test on OVCAR-8 ovarian, 14.1 µM; in the test on UO-31 renal, 5.14 µM.

In the case of `Cn1ccc2c(NCCN)c3c(c(NCCN)c21)C(=O)c1ccccc1C3=O`, the GI50 with A498 renal was 2.31 µM; with CCRF-CEM leukemia, 0.371 µM; in the test with HCT-116 colon it was 0.398 µM; in the test with HS 578T breast, 1.84 µM; in the test on K-562 leukemia it was 0.589 µM; in the test with LOX IMVI melanoma it was 0.651 µM. Besides, the GI50 in the test with MCF7 breast is 0.442 µM; in the test with NCI/ADR-RES ovarian, 8.04 µM; in the test with OVCAR-8 ovarian, 2.84 µM; in the test on UO-31 renal, 1.52 µM. The TGI in the test with A498 renal was determined as 4.87 µM; with HCT-116 colon, 4.41 µM; in the test on HS 578T breast it was 5.26 µM; in the test on K-562 leukemia, 83.6 µM; in the test with LOX IMVI melanoma, 2 µM; with MCF7 breast, 7.22 µM. Besides, the results for the TGI in the test with NCI/ADR-RES ovarian, with OVCAR-8 ovarian and with UO-31 renal were 26.7 µM, 13.4 µM and 5.76 µM, respectively.

Consider `COc1cc(NC(=O)c2cc(OC)c3ccn(C)c3c2)cc2c1C[C@]1(C)CC[C@@H](O)C(C)(C)[C@H]1O2`, for which the GI50 with A498 renal is 2.85 µM; with CCRF-CEM leukemia, 3.75 µM; in the test on HCT-116 colon it was 4.02 µM; with HS 578T breast, 2.33 µM; with K-562 leukemia, 3.82 µM; with LOX IMVI melanoma it was 4.08 µM. In addition, the GI50 with MCF7 breast is 4.68 µM; in the test with NCI/ADR-RES ovarian, 29.3 µM; in the test with OVCAR-8 ovarian, 26 µM; with UO-31 renal it was 2.46 µM. For the same molecule, the TGI with A498 renal was 7.15 µM; in the test on CCRF-CEM leukemia, > 100 µM; in the test with HCT-116 colon it was > 100 µM; in the test on HS 578T breast, 9.34 µM; in the test on K-562 leukemia it was 39.3 µM; with LOX IMVI melanoma it was 19 µM. In addition, the TGI in the test on MCF7 breast is 65.9 µM; in the test on NCI/ADR-RES ovarian, > 100 µM; with OVCAR-8 ovarian, > 100 µM; in the test on UO-31 renal it was 5.78 µM.

On to `CC(=O)Nc1nc(SCc2ccccc2)c2ncn(C(C)=O)c2n1`, for which the GI50 in the test on A498 renal is 30.9 µM; with CCRF-CEM leukemia, > 100 µM; with HCT-116 colon, > 100 µM; in the test on HS 578T breast, 47.3 µM; with K-562 leukemia, > 100 µM; with LOX IMVI melanoma, 75.1 µM. The GI50 with MCF7 breast is 91.8 µM; with NCI/ADR-RES ovarian it was 99.3 µM; in the test on OVCAR-8 ovarian, 76.5 µM; with UO-31 renal, 43.5 µM. In addition, the TGI with A498 renal, with CCRF-CEM leukemia, in the test on HCT-116 colon, in the test with HS 578T breast, in the test on K-562 leukemia and with LOX IMVI melanoma was > 100 µM in each case. The TGI in the test on MCF7 breast, in the test on NCI/ADR-RES ovarian, with OVCAR-8 ovarian and in the test on UO-31 renal was > 100 µM in each case.

On to `CC1(C)OC[C@@H]([C@@]2(CO[Si](C)(C)C(C)(C)C)CC=CC(=O)O2)O1`, for which the GI50 in the test on A498 renal is 18.6 µM; with CCRF-CEM leukemia, 26.2 µM; with HCT-116 colon, 17.6 µM; with HS 578T breast, 30.4 µM; in the test on K-562 leukemia it was 26.7 µM; in the test on LOX IMVI melanoma, 28.3 µM. Also, the GI50 in the test on MCF7 breast is 36.8 µM; in the test with NCI/ADR-RES ovarian, 21.7 µM; in the test with OVCAR-8 ovarian, 33.9 µM; in the test with UO-31 renal, 19.2 µM. The TGI with A498 renal is 36.1 µM; in the test on CCRF-CEM leukemia it was > 100 µM; in the test with HCT-116 colon, 44.6 µM; with HS 578T breast it was 89.4 µM; in the test with K-562 leukemia it was > 100 µM; in the test with LOX IMVI melanoma, > 100 µM. Also, the total growth inhibition concentration (TGI) in the test with MCF7 breast is > 100 µM; in the test with NCI/ADR-RES ovarian, 49.2 µM; in the test with OVCAR-8 ovarian, > 100 µM; in the test with UO-31 renal it was 42.2 µM.

With `O=C1/C(=C/c2ccc(O)c([N+](=O)[O-])c2)CCC/C1=C\c1ccc(O)c([N+](=O)[O-])c1`, the concentration for total growth inhibition (TGI) in the test on A498 renal is 13.1 µM; in the test on CCRF-CEM leukemia it was 50 µM and 56.2 µM; in the test with HCT-116 colon, 18.7 µM and > 100 µM; in the test on HS 578T breast it was 60.3 µM; with K-562 leukemia it was 50 µM and 64.4 µM; in the test on LOX IMVI melanoma it was 23.2 µM. The TGI in the test with MCF7 breast was 50 µM and 63 µM; in the test on NCI/ADR-RES ovarian, 50 µM and 41.7 µM; in the test with OVCAR-8 ovarian it was 50 µM and 34.7 µM; in the test on UO-31 renal, 25.5 µM and 39.5 µM. Further, the GI50 was 14.9 µM with CCRF-CEM leukemia; 26.8 µM in the test with HCT-116 colon; 20.9 µM in the test with K-562 leukemia; 15.8 µM in the test with MCF7 breast; 16.3 µM in the test on NCI/ADR-RES ovarian; 16 µM with OVCAR-8 ovarian. Further, in the test with UO-31 renal, the GI50 is 20.7 µM.

With `C/C=C(\C)C(=O)N[C@H]1[C@@H](OC(C)=O)C[C@]2(C)C3CC[C@@]4(C)C(CC[C@@H]4C(C)N(C)C)C3CCC2[C@H]1O` (stereo partly specified), the GI50 with A498 renal was 2.73 µM; with CCRF-CEM leukemia, 3.57 µM; in the test on HCT-116 colon it was 1.88 µM; in the test with HS 578T breast it was 12.4 µM; with K-562 leukemia, 1.32 µM; in the test on LOX IMVI melanoma it was 1.78 µM. Also, the GI50 is 3.71 µM with MCF7 breast, 9.79 µM in the test with NCI/ADR-RES ovarian, 11.2 µM in the test on OVCAR-8 ovarian and 3.16 µM in the test on UO-31 renal. Besides, the TGI in the test with A498 renal is 20 µM; in the test with CCRF-CEM leukemia it was 21.2 µM; in the test with HCT-116 colon, 4.34 µM; in the test with HS 578T breast, 43.1 µM; with K-562 leukemia, 5.02 µM; with LOX IMVI melanoma, 4.02 µM. In addition, the TGI amounted to 18.1 µM in the test on MCF7 breast, 30.3 µM in the test with NCI/ADR-RES ovarian, 43.4 µM in the test with OVCAR-8 ovarian and 15.2 µM in the test with UO-31 renal.

For `NCCCC(=O)Nc1ccncc1`, the GI50 with A498 renal, with CCRF-CEM leukemia, in the test on HCT-116 colon, with HS 578T breast, in the test on K-562 leukemia and in the test on LOX IMVI melanoma was > 100 µM each time. Further, the GI50 in the test with MCF7 breast, in the test with NCI/ADR-RES ovarian, with OVCAR-8 ovarian and in the test with UO-31 renal was > 100 µM each time. The TGI in the test with A498 renal, in the test on CCRF-CEM leukemia, in the test with HCT-116 colon, in the test on HS 578T breast, in the test on K-562 leukemia and in the test on LOX IMVI melanoma was > 100 µM each time. For the same molecule, the TGI in the test with MCF7 breast, in the test with NCI/ADR-RES ovarian, with OVCAR-8 ovarian and in the test on UO-31 renal was > 100 µM each time.

Turning to `COc1c(C)c2c(c(O)c1C/C=C(\C)CCC(=O)OCCN1CCOCC1)C(=O)OC2`, the GI50 with A498 renal is 0.52 µM; with CCRF-CEM leukemia, 0.187 µM; in the test on HCT-116 colon, 0.131 µM; in the test with HS 578T breast, 7 µM; in the test with K-562 leukemia it was 0.151 µM; in the test with LOX IMVI melanoma, 0.125 µM. Besides, the GI50 is 0.196 µM in the test with MCF7 breast, 0.471 µM in the test with NCI/ADR-RES ovarian, 0.464 µM in the test with OVCAR-8 ovarian and 0.599 µM in the test on UO-31 renal. For the same molecule, the TGI in the test on A498 renal, with CCRF-CEM leukemia, in the test with HCT-116 colon, in the test on HS 578T breast, in the test with K-562 leukemia and in the test with LOX IMVI melanoma was > 100 µM in each case. Also, the TGI with MCF7 breast, with NCI/ADR-RES ovarian, with OVCAR-8 ovarian and with UO-31 renal was > 100 µM throughout.
